The text below walks through data of article PMC9002265, “A New Series of Strigolactone Analogs Derived From Cinnamic Acids as Germination Inducers for Root Parasitic Plants” (Frontiers in Plant Science, 2022).

The subject of test [1] is Striga hermonthica seeds. Also on record: method as in Uraguchi et al., 2018. Conditions: ref Uraguchi et al., 2018; cited from earlier work.
Test [2] deals with Arabidopsis max4 mutant. Briefly: Shoot branching assay, hydroponic culture. In kind it is in vivo. Conditions: 1 μM in hydroponic culture. Here is the method:
Sterilized seeds of the Arabidopsis max4-8 mutant were put on the rockwool which was soaked in Noren’s hydroponic solution ([Noren et al., 2004]) and cultured at 22°C for 14 days under LED light (105 μmol/m^2/s) with a 16 h light/8 h dark photoperiod. Seedlings were transferred to a plastic pot containing 800 ml of hydroponic culture and grown under the same conditions for additional 15 or 16 days. Test compounds were dissolved in acetone and added to hydroponic culture. The final concentration of test compounds was 1 or 5 μM and acetone was adjusted to 0.01% (v/v). The hydroponic culture was renewed after 7 days. The number of rosette branches (>5 mm) was counted. In the experience at 5 μM concentration, fresh weight of shoot was also measured to evaluate the side effects of tested compounds.

Take `CCCCOc1ccc(S(=O)(=O)N2CCN(C(=O)OC3C=C(C)C(=O)O3)CC2)cc1` (centres unmarked) [SPL7, sphynolactone-7]: the “concentration inducing S. hermonthica germination” value in test [1] is given as “fM concentrations”.
With `CC1=CC(O/C=C2\CCOC2=O)OC1=O` (centres unmarked) [GR5], the “shoot branching inhibition of max4” value in test [2] is “clearly inhibited shoot branching”.
